Assay results taken from US20210212913A1, “COSMETIC COMPOSITION FOR PROMOTING SKIN EXFOLIATION” (LG HOUSEHOLD & HEALTH CARE LTD., priority 2017, published 2021).

Tested on: porcine skin stratum corneum
Assay: porcine skin stratum corneum evaluation (exfoliation evaluation)
Format: cell-based, pig
Conditions: 6 mm porcine skin sample, 100 ul sample, 37° C. and 50% humidity for a day; result in words (values only in figures)
Protocol: For the porcine skin stratum corneum evaluation of the present disclosure, the exfoliation evaluation method mentioned in Journal of the European Academy of Dermatology and Venereology, 2014, 28, 415-423 was modified and used. Specifically, a sample of 6 mm diameter from 1 mm thick skin of a pig, and the like, was taken with a biopsy tool, and it was placed in a 96-well plate, and after washing it with phosphate buffered saline (PBS) once, 100 ul of the sample to be tested was added. The present sample was stored under the conditions of 37° C. and 50% humidity for a day, and then the number of exfoliated stratum corneum was measured with a cell counter and a sample containing only water was plotted as a negative control group and 10% gluconolactone […] was plotted as a positive control group. The result was shown in the fold increase compared to the value of the result of gluconolactone 10% pH 6 for relative comparison.

## NC(=O)NC1NC(=O)NC1=O (stereo not shown) [allantoin]
  exfoliation ability (number of exfoliated stratum corneum, fold increase compared to gluconolactone 10% pH 6): did not have high efficacy when used alone
